Consider one molecule from patent US20260265538A1, “Aqueous Industrial Product Stabilized Against Microbial Contamination” (Thor GmbH, priority 2023, published 2026).

Common to all, as to format: cell-based
Assay [1] has as its system Bacteria mixture 1 (Pseudomonas genus). Kind of assay: Single inoculation of paint with bacteria mixture 1, live bacteria count (CFU/g) over 28 days (example 1). Particulars: for Colony forming units (CFU)/g of paint after days [d]: Table 1, Paint 1. The text has this: (§1) Paints 1 to 3 were mixed and homogenized with various concentrations of the guanidinium salts to be tested.
(§2) The batches obtained of the paint thus prepared were inoculated repeatedly with a mixture of different wild-type bacterial strains that are of practical relevance with regard to contamination. These bacteria had previously been isolated from commercial emulsion paints containing conventional preservatives (bacteria mixture 1, Pseudomonas genus), which are microbially contaminated in practice, and commercial so-called preservative-free alkaline emulsion paints (bacteria mixture 2, alkaliphilic bacteria of the Nesterenkonia & Alkalibacterium genus), which are microbially contaminated in practice.
(§3) • Pseudomonas spp. (Pseudomonas oleovorans group) DSM 33933 • Pseudomonas aeruginosa DSM 33935 • Pseudomonas oleovorans DSM 33936 • Pseudomonas putida DSM 33937 • Pseudomonas aeruginosa DSM 33938
(§4) The inoculum was added to the respective sample in each inoculation at 2% (v/w) as a fresh cell suspension in a physiological saline solution (0.9% NaCl). The cell count of the added inoculum in example 1 was 10^5/ml, in examples 2 to 5 10^9/ml, and in example 6 10^6/ml, each in equal portions consisting of the individual bacterial strains. The cell suspension was produced by growing the individual bacteria at 30° C. for 24 h in liquid culture on a shaker. The medium used to grow the bacteria from bacteria mixture 1 was Müller-Hinton liquid medium. Bacteria from bacteria mixture 2 were grown in Müller-Hinton liquid medium that had been adjusted to pH 9.5-9.7 with an alkaline buffer solution beforehand. After growing, the individual liquid cultures were centrifuged, and the cells were resuspended in physiological saline solution. In order to adjust the mixture to the desired cell count, the individual bacteria suspensions, if necessary, were diluted accordingly before being combined with saline solution. The cell count of the inoculum was determined in each case by chamber counting.
In example 1, the samples were inoculated once with a bacteria suspension (bacteria mixture 1) with a cell count of 10^5/ml (2% v/w) and the growth thereof was monitored by determining the live bacteria count per g of paint (colony-forming units, CFU/g) in the samples over 28 days. The CFU/g was determined each time by taking an aliquot (1 g) from the previously homogenized sample and running a serial decadic dilution series in physiological saline solution (0.9% NaCl) by streaking on tryptic soy agar, followed by incubation of the agar plates at 30° C. for 48 h.
Inoculation 2% (w/v) with Bacteria Mixture 1, 10^5 CFU/ml

For assay [2] the test system is unchanged. The assay is described as follows: Repetitive stress test of paints with bacteria mixture 1, semiquantitative evaluation (examples 2 and 3). Particulars: table 3.
From the text: as §1, §2, §3, §4
In examples 2 to 6, what is called a repetitive stress test with bacteria was conducted by inoculating the samples at particular time intervals repeatedly with a bacteria suspension having a cell count of 10^9/ml (2% v/w) and monitoring the evolution of the bacteria by a semiquantitative evaluation method. After each inoculation, the samples were incubated at 30° C. for 6 days (bacteria mixture 1 and 3) or 7 and 14 days (bacteria mixture 2), and after these periods bacterial infestation was evaluated semiquantitatively in each case. For this purpose, an aliquot was taken from each sample after homogenization using a sterile plastic inoculation loop (10 μl) and streaked evenly on agar plates (bacteria mixture 1 and 3 on tryptic soy agar, bacteria mixture 2 on DSMZ 31 alkaline nutrient agar). The streaked agar plates were then incubated at 30° C. for 48 h (bacteria mixture 1 and 3) or 5 to 7 days (bacteria mixture 2). After incubation, the bacterial colonies grown on the agar plates were visually evaluated and quantified according to the following scheme:
A total of 3 inoculation cycles was performed in each repetitive stress test.
Inoculation 2% (w/v) with Bacteria Mixture 1, 10^9 CFU/ml
2% (w/v) Inoculation with Bacteria Mixture 1, […]

The subject of a further assay is Bacteria mixture 3. The assay is described as follows: Repetitive stress test of calcium carbonate slurry with bacteria mixture 3, semiquantitative evaluation (example 6). Particulars: table 6; slurry having a pH of pH 9.4, addition of 0.075% by weight. The method, then:
The calcium carbonate slurry was stored at 60° C. for 3 days prior to addition of the guanidinium salts for heat sterilization. The slurry thus treated was then admixed and homogenized with different concentrations of guanidine salts. The slurry prepared in this way was inoculated repeatedly with bacteria strains of practical relevance (bacteria mixture 3).
• Alcaligenes faecalis NCIMB 13145 • Aeromonas hydrophila DSM 6173 • Escherichia coli DSM 13631 • Burkholderia cepacia DSM 9241 • Staphylococcus aureus DSM 799 • Pseudomonas aeruginosa DSM 50071 • Pseudomonas putida DSM 13624
The inoculum was added to the respective sample in each inoculation at 2% (v/w) as a fresh cell suspension in a physiological saline solution (0.9% NaCl). […] The cell count of the inoculum was determined in each case by chamber counting.
In examples 2 to 6, what is called a repetitive stress test with bacteria was conducted by inoculating the samples at particular time intervals repeatedly with a bacteria suspension having a cell count of 10^9/ml (2% v/w) and monitoring the evolution of the bacteria by a semiquantitative evaluation method. After each inoculation, the samples were incubated at 30° C. for 6 days (bacteria mixture 1 and 3) or 7 and 14 days (bacteria mixture 2), and after these periods bacterial infestation was evaluated semiquantitatively in each case. […]

Some results are limits rather than exact numbers.

Take `N=C(N)N.N=C(N)N.O=C(O)O` [guanidine carbonate]: the “Colony forming units (CFU)/g of paint after days [d]” value (from here on “Colony forming units (CFU)/g”) is given as 1.2 × 10^3 CFU/g in assay [1] (+0.01% guanidine carbonate (67 ppm guanidine), pH 8.1, 0 d); 3.2 × 10^3 CFU/g in assay [1] (+0.01% guanidine carbonate (67 ppm guanidine), pH 8.1, 2 d); 3.0 × 10^5 CFU/g in assay [1] (+0.01% guanidine carbonate (67 ppm guanidine), pH 8.1, 5 d); 2.8 × 10^6 CFU/g in assay [1] (+0.01% guanidine carbonate (67 ppm guanidine), pH 8.1, 28 d); 1.2 × 10^3 CFU/g in assay [1] (+0.025% guanidine carbonate (164 ppm guanidine), pH 8.3, 0 d); 1.1 × 10^3 CFU/g in assay [1] (+0.025% guanidine carbonate (164 ppm guanidine), pH 8.3, 2 d). Moreover, the “Colony forming units (CFU)/g” value is recorded as 1.0 × 10^5 CFU/g in assay [1] (+0.025% guanidine carbonate (164 ppm guanidine), pH 8.3, 5 d); 2.3 × 10^6 CFU/g in assay [1] (+0.025% guanidine carbonate (164 ppm guanidine), pH 8.3, 28 d); 9.0 × 10^2 CFU/g in assay [1] (+0.05% guanidine carbonate (328 ppm guanidine), pH 8.5, 0 d); under 5 CFU/g in assay [1] (+0.05% guanidine carbonate (328 ppm guanidine), pH 8.5, 2 d); under 5 CFU/g in assay [1] (+0.05% guanidine carbonate (328 ppm guanidine), pH 8.5, 5 d); under 5 CFU/g in assay [1] (+0.05% guanidine carbonate (328 ppm guanidine), pH 8.5, 28 d). Besides, the “Colony forming units (CFU)/g” value in assay [1] (+0.075% guanidine carbonate (492 ppm guanidine), pH 8.7, 0 d) is reported as 1.1 × 10^3 CFU/g; in assay [1] (+0.075% guanidine carbonate (492 ppm guanidine), pH 8.7, 2 d), under 5 CFU/g; in assay [1] (+0.075% guanidine carbonate (492 ppm guanidine), pH 8.7, 5 d), under 5 CFU/g; in assay [1] (+0.075% guanidine carbonate (492 ppm guanidine), pH 8.7, 28 d), under 5 CFU/g; in assay [1] (+0.1% guanidine carbonate (656 ppm guanidine), pH 9.0, 0 d), 1.2 × 10^3 CFU/g; in assay [1] (+0.1% guanidine carbonate (656 ppm guanidine), pH 9.0, 2 d) it was under 5 CFU/g. For the same molecule, the “Colony forming units (CFU)/g” value in assay [1] (+0.1% guanidine carbonate (656 ppm guanidine), pH 9.0, 5 d) was under 5 CFU/g; in assay [1] (+0.1% guanidine carbonate (656 ppm guanidine), pH 9.0, 28 d) it was under 5 CFU/g. The “Stabilization of the paint against microbial infestation” value in assay [1] (table 1, addition of 0.05% by weight to a paint having a pH of greater than or equal to pH 8.5) was “distinct stabilization”; in assay [2] (paint 1, pH of pH 9.4, addition of 0.15% by weight), “distinct stabilization”; in assay [2] (paint 2, pH of pH 9.1, addition of 0.175% by weight), “distinct stabilization”. For the same molecule, the “Stabilization of the slurry against microbial infestation” value in the assay on Bacteria mixture 3 is on record as “distinct stabilization”.
